Experimental data reported in patent publication US12060387B2, “Polypeptide-based shuttle agents for improving the transduction efficiency of polypeptide cargos to the cytosol of target eukaryotic cells, uses thereof, methods and kits relating to same” (priority 2015, dated 2024).
Read-outs that look alike come from different tables or passages of the source. Where no end group is shown, it is not given here.

Legend:
[1] = Cell toxicity / % cell viability by flow cytometry (cells in total events v. untreated); type: cell-based, Human; conditions: human, HeLa cells, HeLa, GFP-NLS 5 μM; for viability at 10 s, 35 µM: shuttle 35 μM; for viability at 10 s, 50 µM: shuttle 50 μM
Text: (§2) The fluorescence of GFP was quantified using flow cytometry (Accuri C6, Becton, Dickinson and Company (BD)). Untreated cells were used to establish a baseline in order to quantify the increased fluorescence due to the internalization of the fluorescent protein in treated cells. The percentage of cells with a fluorescence signal above the maximum fluorescence of untreated cells, “mean %” or “Pos cells (%)”, is used to identify positive fluorescent cells. “Relative fluorescence intensity (FL1-A)” corresponds to the mean of all fluorescence intensities from each cell with a fluorescent signal after fluorescent protein delivery with the shuttle agent. Also, the events scanned by flow cytometry corresponding to cells (size and granularity) were analyzed. The cellular toxicity (% cell viability) was monitored comparing the percentage of cells in the total events scanned of treated cells comparatively to untreated cells.

[2] = tested on: HeLa cells; test: as above; type: cell-based, Human; conditions: HeLa, Protocol B, GFP-NLS 5 μM, 10 seconds
Text: as §2

[3] = Cell viability (%) by flow cytometry; type: cell-based; conditions: GFP-NLS 5 μM, read-out: Cell viability (%) (±St. Dev.; n = 3); for viability at 15 s, 5 µM: Protocol C, shuttle 5 μM, 15 seconds; for viability at 10 s, 35 µM: Protocol B, shuttle 35 μM, 10 seconds
Experimental: (§1) The ability of the shuttle agent His-CM18-PTD4 to deliver GFP-NLS to the nuclei of different adherent and suspension cells using Protocols B (adherent cells) or C (suspension cells) as described in Example 9.1 was examined. The cell lines tested included: HeLa, Balb3T3, HEK 293T, CHO, NIH3T3, Myoblasts, Jurkat, THP-1, CA46, and HT2 cells, which were cultured as described in Example 1. GFP-NLS (5 μM; see Example 5.1) was co-incubated with 35 μM of His-CM18-PTD4 and exposed to adherent cells for 10 seconds (Protocol B), or was co-incubated with 5 μM of His-CM18-PTD4 and exposed to suspension cells for 15 seconds (Protocol C). […] “Pos cells (%)” is the mean percentages of all cells that emanate a GFP signal.

[4] = Cell viability (%) by flow cytometry; type: cell-based, Chinese hamster; conditions: CHO cells, Protocol B, shuttle 35 μM, GFP-NLS 5 μM, 10 seconds, read-out: Cell viability (%) (±St. Dev.; n = 3)
Experimental: as §1

[5] = Cell toxicity / % cell viability by flow cytometry (cells in total events v. untreated); type: cell-based, human; conditions: human, THP-1 cells, Cell viability (%) (±St. Dev.; n = 3), THP-1; for viability at 15 s, 5 µM: shuttle 5 μM, 15 seconds
[6] = tested on: THP-1 cells; test: as above; type: cell-based, human; conditions: THP-1, daily 150 min exposure with serum, shuttle 0.8 μM, GFP-NLS 1 μM
[7] = Cell viability (%) (±St. Dev.; n = 3), FIG. 22B, Protocol B, 10 seconds, read-out: Cell viability (%) (±St. Dev.; n = 3), FIG. 22B

HHHHHHKWKLFKKIGAVLKVLTTGYARAAARQARA [His-CM18-PTD4]
viability at 1 h, 10 µM ([1]; Cell viability (%) (± St. Dev.; n = 3), Protocol A, shuttle 10 μM, 1 hour): 96.4 ± 2.7%
viability at 10 s, 35 µM ([1]; Cell viability (%) (± St. Dev.; n = 3), Protocol B, 10 seconds, read-out: Cell viability (%) (± St. Dev.; n = 3)): 94.6 ± 0.4%
viability at 10 s, 10 µM ([1]; Cell viability (%) (±St. Dev.; n = 3), FIG. 22B, Protocol B, shuttle 10 μM, 10 seconds): 96.3 ± 2.3%
viability at 10 s, 25 µM ([1]; Cell viability (%) (±St. Dev.; n = 3), FIG. 22B, Protocol B, shuttle 25 μM, 10 seconds): 95.3 ± 3.7%
viability at 10 s, 35 µM [1, 7]: 79.6 ± 5.9%
viability at 10 s, 50 µM [1, 7]: 69.2 ± 2.7%
viability at 10 s, 50 µM ([1]; Cell viability (%) (±St. Dev.; n = 3), FIG. 29A, Protocol B, 10 seconds, read-out: Cell viability (%) (±St. Dev.; n = 3), FIG. 29A): 92 ± 3.6%
viability at 1 min, 10 µM ([1]; Cell viability (%) (±St. Dev.; n = 3), FIG. 29B, Protocol B, shuttle 10 μM, incubation 1 min., read-out: Cell viability (%) (±St. Dev.; n = 3), FIG. 29B): 97.6 ± 2.7%
viability at 2 min, 10 µM ([1]; Cell viability (%) (±St. Dev.; n = 3), FIG. 29B, Protocol B, shuttle 10 μM, incubation 2 min., read-out: Cell viability (%) (±St. Dev.; n = 3), FIG. 29B): 80.9 ± 3.2%
viability at 5 min, 10 µM ([1]; Cell viability (%) (±St. Dev.; n = 3), FIG. 29B, Protocol B, shuttle 10 μM, incubation 5 min., read-out: Cell viability (%) (±St. Dev.; n = 3), FIG. 29B): 66.2 ± 4.4%
viability at 1 min, 20 µM ([1]; Cell viability (%) (±St. Dev.; n = 3), FIG. 29I, Protocol B, shuttle 20 μM, 1 minute, read-out: Cell viability (%) (±St. Dev.; n = 3), FIG. 29I): 81.6 ± 4.5%
Cell viability (%) (±St. Dev.; n = 3) ([2]; shuttle 35 μM): 94.6 ± 0.4%
Cell viability (%) (±St. Dev.; n = 3), FIG. 29E ([2]; shuttle 50 μM): 92 ± 3.6%
viability at 15 s, 5 µM ([3]; human, CA46 cells): 71.6 ± 1%
viability at 10 s, 35 µM ([3]; human, HEK 293T cells): 95.3 ± 1.2%
viability at 15 s, 5 µM ([3]; human, Jurkat cells): 73.6 ± 0.7%
viability at 10 s, 35 µM ([3]; human, Myoblasts): 23.5 ± 1.1%
viability at 10 s, 35 µM ([3]; mouse, Balb3T3 cells): 98.4 ± 0.6%
viability at 15 s, 5 µM ([3]; mouse, HT2 cells): 90.6 ± 1.5%
viability at 10 s, 35 µM ([3]; mouse, NIH3T3 cells): 3.3 ± 5.4%
viability at 10 s, 35 µM [4]: 92.8 ± 0.1%
viability at 1 h, 1 µM ([5]; FIG. 31, Protocol A, shuttle 1 μM, GFP-NLS 5 μM, 1 hour): 96.9 ± 3.6%
viability at 0.5 µM ([5]; FIG. 31, Protocol C, shuttle 0.5 μM, GFP-NLS 5 μM): 82.1 ± 2.7%
viability at 15 s, 5 µM ([5]; FIG. 31, Protocol C, GFP-NLS 5 μM, read-out: Cell viability (%) (±St. Dev.; n = 3), FIG. 31): 64 ± 4.1%
viability at 15 s, 1 µM ([5]; Protocol C, shuttle 1 μM, GFP-NLS 5 μM, incubation time 15 sec, read-out: Cell viability (%) (±St. Dev.; n = 3)): 90 ± 3%
viability at 0.5 min, 1 µM ([5]; Protocol C, shuttle 1 μM, GFP-NLS 5 μM, incubation time 30 sec, read-out: Cell viability (%) (±St. Dev.; n = 3)): 89 ± 1.1%
viability at 1 min, 1 µM ([5]; Protocol C, shuttle 1 μM, GFP-NLS 5 μM, incubation time 60 sec, read-out: Cell viability (%) (±St. Dev.; n = 3)): 85.3 ± 3.6%
viability at 2 min, 1 µM ([5]; Protocol C, shuttle 1 μM, GFP-NLS 5 μM, incubation time 120 sec, read-out: Cell viability (%) (±St. Dev.; n = 3)): 74.3 ± 3.2%
viability at 15 s, 5 µM ([5]; Protocol C, GFP-NLS 5 μM, read-out: Cell viability (%) (±St. Dev.; n = 3)): 64.1 ± 4.5%
viability at 24 h, 0.5 µM ([5]; daily 150 min exposure with serum, shuttle 0.5 μM, GFP-NLS 5 μM, exposure 1 day): 98.2 ± 2.4%
viability at 72 h, 0.5 µM ([5]; daily 150 min exposure with serum, shuttle 0.5 μM, GFP-NLS 5 μM, exposure 3 days): 84.3 ± 3.8%
viability at 24 h, 0.8 µM ([5]; daily 150 min exposure with serum, shuttle 0.8 μM, GFP-NLS 2.5 μM, exposure 1 day, read-out: Cell viability (%) (±St. Dev.; n = 3)): 92.3 ± 1.9%
viability at 72 h, 0.8 µM ([5]; daily 150 min exposure with serum, shuttle 0.8 μM, GFP-NLS 2.5 μM, exposure 3 days, read-out: Cell viability (%) (±St. Dev.; n = 3)): 68.5 ± 2.2%
Cell viability (%) (±St. Dev.; n = 3) ([6]; exposure 1 day): 98.4 ± 6.4%
Cell viability (%) (±St. Dev.; n = 3) ([6]; exposure 3 days): 80.6 ± 4.6%
